We go through five compounds from publication PMC7280195, “Simple ammonium salts acting on sigma-1 receptors yield potential treatments for cancer and depression” (Scientific Reports, 2020).

The target in data set [1] is noradrenaline transporter. As to conditions: read-out: Ki noradrenaline transport, previously published; cited from earlier work.
Another data set relates to dopamine transporter. Further details: method as in PMID 10525084. As to conditions: read-out: dopamine transport inhibition, previously published; cited from earlier work.
Data set [2] concerns the target muscarinic acetylcholine receptor. The data set is classed as binding, rat. As to conditions: for mACh R affinity pKi ± SEM (n): 1.35 nM [3H] QNB.
For data set [3], the system named is MDA-MB-468 cells. The following applies: cited from earlier work.
In data set [4] the test system is MDA-MB-468 cells. The following applies: cited from earlier work. This is another data set of the same source.
The next data set deals with MAC13 cells. Kind of data set: MTS assay in MAC13 cells in vitro. As to conditions: mean ± SEM, n = 6. The data set is classed as cell-based, mouse. Here is the method: Cells (10,000 cells per well, 100 μl) were seeded into 96-well plates and allowed to adhere overnight. The following day drugs were added and cells were permitted to proliferate for 24 hours before the addition of 10 μl CellTiter 96 AQueous Non-Radioactive Cell Proliferation Assay reagent (Promega, Southampton, UK) as previously described. Absorbance (490 nm) readings were taken at 0, 1, 2 and 3 hours to monitor formazan formation and rates of metabolic activity were compared.
In general terms: Tetrazolium dyes change colour on reduction, which living cells bring about.

Data set [5] addresses human noradrenaline transporter (Homo sapiens, UniProt P23975). Kind of data set: Monoamine transporter uptake assay, 293 cells expressing noradrenaline transporter. As to conditions: read-out: IC50 noradrenaline transport. The data set is classed as cell-based.
The target of data set [6] is T1, human dopamine transporter (Homo sapiens, UniProt Q01959).
T1 construct: expressed in transfected cells
As to the kind of experiment: Monoamine transporter uptake assay, 293 cells expressing dopamine transporter. Format: cell-based. As to conditions: read-out: IC50 dopamine transport.

The test system of data set [7] is MDA-MB-468 cells. As to the kind of experiment: cells. Format: cell-based.
A further data set addresses T2, sigma-2 receptor (Homo sapiens, UniProt Q5BJF2).
T2 construct: MCF7 cells were suspended in sigma-2 assay buffer (50 mM Tris-HCl; pH 8.0), sonicated (1 minute) and the homogenate was centrifuged; endogenous in cells; host or cells: MCF7 cells (gift), membrane pellet
Kind of data set: biochemical. Format: binding.

For another data set, the system named is MCF7 cells. Format: cell-based.
Data set [8] has as its system MDA-MB-468 cells. As to the kind of experiment: Fura-2 cytoplasmic calcium measurement in MDA-MB-468 cells. Format: cell-based. As to conditions: data not shown.
A further data set addresses human 5-HT transporter (Homo sapiens, UniProt P31645). The data set is classed as cell-based. The following applies: read-out: IC50 serotonin reuptake.
Another data set addresses muscarinic receptor. Further details: method as in PMID 11834244. The following applies: cited from earlier work.

Broadly, the Ki is a dissociation constant, usually derived from enzyme kinetics or from competition with a known ligand. In general, EC50 refers to the concentration giving half of the maximal effect.

Where two headings read alike, the source gives them in different places.

T2 sequence (Q5BJF2 whole entry): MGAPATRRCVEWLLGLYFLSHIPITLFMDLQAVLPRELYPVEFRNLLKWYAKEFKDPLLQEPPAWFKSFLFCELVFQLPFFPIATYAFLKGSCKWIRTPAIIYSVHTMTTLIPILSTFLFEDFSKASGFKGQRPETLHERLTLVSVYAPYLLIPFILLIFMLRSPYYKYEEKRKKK
Chain of human noradrenaline transporter (P23975 whole entry): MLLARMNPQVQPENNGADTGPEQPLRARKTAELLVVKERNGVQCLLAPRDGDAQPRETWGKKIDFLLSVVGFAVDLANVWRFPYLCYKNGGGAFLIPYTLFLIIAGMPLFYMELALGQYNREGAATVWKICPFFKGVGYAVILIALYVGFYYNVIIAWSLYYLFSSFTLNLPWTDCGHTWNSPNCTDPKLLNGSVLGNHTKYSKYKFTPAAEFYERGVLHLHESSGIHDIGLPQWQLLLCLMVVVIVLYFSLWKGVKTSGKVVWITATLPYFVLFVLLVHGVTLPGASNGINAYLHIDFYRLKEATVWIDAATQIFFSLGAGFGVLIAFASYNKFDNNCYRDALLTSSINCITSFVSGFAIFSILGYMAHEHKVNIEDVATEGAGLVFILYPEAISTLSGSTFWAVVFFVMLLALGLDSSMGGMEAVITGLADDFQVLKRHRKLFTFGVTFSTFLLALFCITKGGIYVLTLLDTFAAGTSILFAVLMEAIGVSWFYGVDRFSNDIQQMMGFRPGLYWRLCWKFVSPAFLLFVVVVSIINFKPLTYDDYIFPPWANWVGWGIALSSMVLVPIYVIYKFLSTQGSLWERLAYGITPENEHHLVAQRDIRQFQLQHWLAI
T1 sequence (Q01959 whole entry): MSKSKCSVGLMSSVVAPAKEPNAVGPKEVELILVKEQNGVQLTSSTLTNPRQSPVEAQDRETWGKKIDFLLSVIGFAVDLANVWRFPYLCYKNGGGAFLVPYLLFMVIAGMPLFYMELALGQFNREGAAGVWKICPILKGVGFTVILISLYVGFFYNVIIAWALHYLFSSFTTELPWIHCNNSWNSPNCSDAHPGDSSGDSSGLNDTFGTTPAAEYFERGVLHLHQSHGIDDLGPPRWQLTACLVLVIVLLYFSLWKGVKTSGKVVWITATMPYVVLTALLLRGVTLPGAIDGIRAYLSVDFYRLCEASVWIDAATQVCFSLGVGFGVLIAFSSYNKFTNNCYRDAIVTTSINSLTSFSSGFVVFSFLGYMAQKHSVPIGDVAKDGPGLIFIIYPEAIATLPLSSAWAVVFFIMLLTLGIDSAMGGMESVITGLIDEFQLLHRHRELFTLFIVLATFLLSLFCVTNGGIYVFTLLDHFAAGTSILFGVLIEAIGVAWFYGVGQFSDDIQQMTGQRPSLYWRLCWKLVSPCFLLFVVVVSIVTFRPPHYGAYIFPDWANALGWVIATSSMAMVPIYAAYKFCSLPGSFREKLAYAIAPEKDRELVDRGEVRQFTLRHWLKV
Chain of human 5-HT transporter (P31645 whole entry): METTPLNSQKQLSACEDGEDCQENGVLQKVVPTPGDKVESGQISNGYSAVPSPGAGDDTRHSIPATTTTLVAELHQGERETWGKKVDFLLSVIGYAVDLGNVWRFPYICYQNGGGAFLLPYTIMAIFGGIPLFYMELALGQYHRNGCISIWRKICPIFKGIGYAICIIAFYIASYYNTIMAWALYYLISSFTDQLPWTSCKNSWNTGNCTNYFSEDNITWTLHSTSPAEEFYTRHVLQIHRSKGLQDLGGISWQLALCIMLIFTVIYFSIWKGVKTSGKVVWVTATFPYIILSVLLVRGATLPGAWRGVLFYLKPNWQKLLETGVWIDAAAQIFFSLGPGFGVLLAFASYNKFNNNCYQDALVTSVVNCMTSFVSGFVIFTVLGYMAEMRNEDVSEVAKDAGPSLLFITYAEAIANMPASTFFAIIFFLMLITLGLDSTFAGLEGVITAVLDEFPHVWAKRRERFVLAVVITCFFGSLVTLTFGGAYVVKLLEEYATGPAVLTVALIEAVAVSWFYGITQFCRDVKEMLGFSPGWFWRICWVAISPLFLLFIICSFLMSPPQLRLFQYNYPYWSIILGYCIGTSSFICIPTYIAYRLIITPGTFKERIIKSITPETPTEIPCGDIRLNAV

In the case of `CNCCCN1c2ccccc2CCc2ccccc21` [Desipramine, desipramine], the Ki in [1] was 0.0043 µM.

Turning to `c1ccc(CCCN2CCN(CCOC(c3ccccc3)c3ccccc3)CC2)cc1` [GBR-12935], the IC50 in the data set on dopamine transporter was […].

As for `N=C(Nc1ccc(I)cc1)NC1C2CC3CC(C2)CC1C3` (stereo not drawn) [IPAG, 1-(4-iodophenyl)-3-(2-adamantyl)guanidine], in data set [2] (rat brain membranes), the “mACh R affinity pKi ± SEM (n)” value is 4.3. In the data set with MDA-MB-468 cells [3], the pEC50 calcium signalling is reported as 3.9. In addition, the values for the EC50 with MDA-MB-468 cells [3] (read-out: EC50 calcium signalling) and in the data set on MDA-MB-468 cells [4] (read-out: EC50 reduction of cellular metabolic activity) were 123 µM and 24 µM, respectively. Further, in the data set on MDA-MB-468 cells [4], the “pEC50 reduction of cellular metabolic activity” value is 4.6.

As for triisopentylammonium, in the data set on MAC13 cells, the “pIC50 reduction in MAC13 cell metabolism” value was found to be 4.4 ± 0.2. For the same compound, the “mACh R affinity pKi ± SEM (n)” value in [2] (rat brain membranes) is given as 3.60 ± 0.11 (5). Further, the Ki turned out to be 251 µM in data set [2] (rat brain membranes, read-out: mACh R affinity Ki) and 0.4 µM on sigma-2 receptor (read-out: σ-2 R affinity Ki). The “mACh R Ki/σ-1 R Ki” value in data set [2] (ratio between Ki values) came to 3.4. Besides, the IC50 worked out at 7800 µM in [5], 1600 µM in data set [6] and 7800 µM on human 5-HT transporter. In addition, in the data set on MAC13 tumours (10 mg.kg−1 i.v. daily from day 12, P < 0.001), the “MAC13 tumour growth compared to vehicle control” value is on record as “statistically significant reduction in tumour growth”. Also, the “tolerability in tumour-bearing mice” value with MAC13 tumours (10 mg.kg−1 i.v. daily, grooming activity maintained) is on record as “no negative signs”. Further, the “pIC50 reduction of cell metabolism” value with MDA-MB-468 cells [7] is on record as 2.96 ± 0.06. Further, in the data set on MDA-MB-468 cells [7], the “pIC50 reduction of cell metabolism, non-targeting control” value came to 2.9 ± 0.2. On sigma-2 receptor, the “higher affinity for sigma-2 receptors over sigma-1 receptors” value was 200 fold. For the same compound, the “σ-2 R affinity pKi ± SEM (n)” value at sigma-2 receptor is 6.40 ± 0.09 (3). In addition, the “effect on MCF7 cells in MTS assay” value in the data set with MCF7 cells is “without effect”. Besides, the “concentration showing a calcium response” value with MDA-MB-468 cells [8] is reported as at least 1 mM.

For the compound `CC(C)=CCN1CC[C@]2(C)c3cc(O)ccc3C[C@H]1[C@H]2C` [(+) pentazocine], the pKi muscarinic receptor on muscarinic receptor was 6.29 ± 0.06.
